Where “and” joins values, the source holds several entries; their conditions need not be identical. Identical values can stand only once. Marks after values point to notes of the source that are not given here.
Experiments:
[1] = Single dose pharmacokinetics and bioavailability study; type: in vivo, male Sprague Dawley rats; settings: rat, plasma
Procedure: (§1) Pharmacokinetics and toxicokinetics measurements were performed by the commercial Contract Research Organizations Sai Life Sciences and WuXi AppTec, respectively, according to their standard protocols and in accordance with relevant guidelines and regulations. C57 BL/6 mice, Sprague Dawley rats, and Beagle dogs were studied.

[2] = as above; type: in vivo, male C57BL/6 mice; settings: mouse
Procedure: as §1

[3] = 28-day repeat oral dose toxicity study, toxicokinetics; type: in vivo, Sprague Dawley rats; settings: rat
Procedure: as §1

[4] = test system: P4 cell line; experiment: Cellular ROS assay (DCFH-DA); type: cell-based, human; settings: P4 cells, 24 h compound treatment
Procedure: The cells were then treated for 72 h (or shorter as indicated) with culture medium containing semi-logarithmic dilutions of the test compound. Alternatively, 3 × 10^3 cells/well were seeded when cells were treated for 24 h only. At the end of the incubation period, cells were loaded with 40 µM DCFH-DA (#D6883, Sigma-Aldrich). in M199 without phenol red for 30 min. The excess of the dye was washed with ice-cold M199 without phenol red and the cells were lysed with 100 µl/well of ice-cold 0.2% Triton X-100 in M199 without phenol red after 10 min incubation in ice. Cellular debris was spun down by centrifugation at 2600 g, 5 min, +4 °C and 90 µl/well of cell lysate were transferred to a black 96-wells plate and DCF fluorescence was measured on a scanning microplate reader (BMG FLUOstar Omega; Ex. 480 nm, Em. 520 nm).

[5] = test system: P4 cell line; experiment: Redox Stress Survival assay (BSO-induced cell death, Calcein AM viability); type: cell-based, human
Procedure: Cells were seeded at a density of 4 × 10^3 cells/well into 96-wells black plates and incubated for 24 h. To induce redox stress, semi-logarithmic dilutions of buthionine sulphoximine (BSO, #B2515, Sigma Aldrich) up to 100 µM were added to the cells in culture medium and incubated for 24 h. Cell viability was assessed by quantification of cellular conversion of Calcein AM into fluorescent Calcein. Briefly, after having discarded the BSO containing medium, cells were washed once with M199 without phenol red and loaded with 2 µM Calcein AM (#65-0853-39, Affimetrix eBioscience) in M199 without phenol red for 25 min. At the end of the incubation period, the excess of the dye was washed with M199 without phenol red and Calcein fluorescence was measured with a scanning microplate reader (BMG FLUOstar Omega; Ex. 480 nm, Em. 520 nm). For compound screening and target identification measurements cells were treated with 200 µM BSO alone or in co-incubation with semi-logarithmic dilutions of the test compound. Additionally, where indicated, increasing doses of Auranofin (AFN, #BML-EI206-0100, Enzo) or Aurothioglucose (ATG, #A0606, Sigma Aldrich) were co-incubated with BSO and the test compound. In all cases, cell viability was assessed 24 h after the treatment.

[6] = test system: primary human skin fibroblasts; experiment: CumOOH induced lipid peroxidation (bodipy 581/591 C11); type: cell-based; settings: 30 µM cumOOH
Procedure: The cells were seeded at a density of 3 × 10^3 cells/well into 96-wells black plates. After 24 h, the cells were coincubated with 500 nM bodipy 581/591 C11 (#D3861, Thermo Fisher) and different amounts of KH compound in M199 without phenol red. This medium was used in all subsequent washes and incubations. After 30 min. incubation the cells were washed twice and subsequently incubated with 30 μM cumene hydroperoxide (cumOOH). For background subtractions cells with the dye but without cumOOH were used. After 30 minutes incubation and two washes oxidized bodipy 581/591 C11 was quantified on an automated bioimager (BD Pathway 855), by using a 20x objective and Ex. 488/10 nm, Em. FURA/FITC. Total cellular fluorescence per well was normalized on the number of cellular pixels/well and normalized on the incubation with probe and cumOOH but without compound (vehicle set as 100%). Experiments were performed at least three times with 3 wells per experiment.

[7] = KH176 25 mg/kg/dose BID oral, F, Day 1, plasma
[8] = KH176 25 mg/kg/dose BID oral, F, Day 28, plasma
[9] = KH176 25 mg/kg/dose BID oral, M, Day 1, plasma
[10] = KH176 25 mg/kg/dose BID oral, M, Day 28, plasma
[11] = KH176 75 mg/kg/dose BID oral, F, Day 1, plasma
[12] = KH176 75 mg/kg/dose BID oral, F, Day 28, plasma
[13] = KH176 75 mg/kg/dose BID oral, M, Day 1, plasma
[14] = KH176 75 mg/kg/dose BID oral, M, Day 28, plasma
[15] = KH176 250 mg/kg/dose BID oral, F, Day 1, plasma
[16] = KH176 250 mg/kg/dose BID oral, F, Day 28, plasma
[17] = KH176 250 mg/kg/dose BID oral, M, Day 1, plasma
[18] = KH176 250 mg/kg/dose BID oral, M, Day 28, plasma

Work on `CC1=C(C)C(=O)C(CC[C@](C)(O)C(=O)N[C@@H]2CCCNC2)=C(C)C1=O` [KH176m] yielded an AUCINF ([1]; KH176 2 mg/kg i.v.) of 206.1 ng·h/mL, an AUClast ([1]; KH176 2 mg/kg i.v.) of 150.2 ng·h/mL and a T1/2 ([1]; KH176 2 mg/kg i.v.) of 2.3 h. The “C0 (i.v.)” value ([1]; KH176 2 mg/kg i.v., back extrapolated) was 59.7 ng/mL, the AUCINF ([1]; KH176 10 mg/kg p.o.) was 1503.2 ng·h/mL and the AUClast ([1]; KH176 10 mg/kg p.o.) was 1441.1 ng·h/mL. For the same compound, the “Cmax (p.o.)” value ([1]; KH176 10 mg/kg p.o.) was 396.4 ng/mL, the Tmax ([1]; KH176 10 mg/kg p.o.) was 0.5 h and the “Brain to Plasma ratio, range (1–8 hours)” value ([2]; KH176 2 mg/kg i.v.) was “b.d”. The “Heart to Plasma ratio, range (1–8 hours)” value ([2]; KH176 2 mg/kg i.v.) was 6.1–11.6, the “Liver to Plasma ratio, range (1–8 hours)” value ([2]; KH176 2 mg/kg i.v.) was 29.0–57.1 and the “Skeletal muscle to Plasma ratio, range (1–8 hours)” value ([2]; KH176 2 mg/kg i.v.) was 8.2–20.5. For the same compound, the AUCINF ([2]; KH176 2 mg/kg i.v., plasma) was 146.9 ng·h/mL, the AUClast ([2]; KH176 2 mg/kg i.v., plasma) was 140.0 ng·h/mL and the T1/2 ([2]; KH176 2 mg/kg i.v., plasma) was 0.5 h. The “C0 (i.v.)” value ([2]; KH176 2 mg/kg i.v., plasma, back extrapolated) was 359.3 ng/mL, the “Brain to Plasma ratio, range (1–8 hours)” value ([2]; KH176 10 mg/kg p.o.) was 0.1–19.6 and the “Heart to Plasma ratio, range (1–8 hours)” value ([2]; KH176 10 mg/kg p.o.) was 2.1–14.6. The “Liver to Plasma ratio, range (1–8 hours)” value ([2]; KH176 10 mg/kg p.o.) was 12.8–94.1, the AUCINF ([2]; KH176 10 mg/kg p.o., plasma) was 1260.8 ng·h/mL and the AUClast ([2]; KH176 10 mg/kg p.o., plasma) was 1225.2 ng·h/mL. The “Cmax (p.o.)” value ([2]; KH176 10 mg/kg p.o., plasma) was 1061.8 ng/mL, the Tmax ([2]; KH176 10 mg/kg p.o., plasma) was 0.25 h and the “Skeletal muscle to Plasma ratio, range at 1 hour” value ([2]; KH176 10 mg/kg p.o., no concentrations detected at 8 hours) was 4.4–33.8^d. The “AUC0–24 h Ratio KH176m/KH176” value ([3]; KH176 25 mg/kg/dose BID oral, F, Day 1) was 0.091, the “AUC0–24 h” value [3, 7] was 1140 ng·h/mL and the Cmax [3, 7] was 85.9 ng/mL. For the same compound, the T1/2 [3, 7] was 4.5 h, the “AUC0–24 h Ratio KH176m/KH176” value ([3]; KH176 25 mg/kg/dose BID oral, F, Day 28) was 0.074 and the “AUC0–24 h” value [3, 8] was 1410 ng·h/mL. For the same compound, the Cmax [3, 8] was 123 ng/mL, the T1/2 [3, 8] was 6.2 h and the “AUC0–24 h Ratio KH176m/KH176” value ([3]; KH176 25 mg/kg/dose BID oral, M, Day 1) was 0.075. For the same compound, the “AUC0–24 h” value [3, 9] was 792 ng·h/mL, the Cmax [3, 9] was 92.7 ng/mL and the T1/2 [3, 9] was 2.3 h. For the same compound, the “AUC0–24 h Ratio KH176m/KH176” value ([3]; KH176 25 mg/kg/dose BID oral, M, Day 28) was 0.064, the “AUC0–24 h” value [3, 10] was 993 ng·h/mL and the Cmax [3, 10] was 126 ng/mL. The T1/2 [3, 10] was 13.3 h, the “AUC0–24 h Ratio KH176m/KH176” value ([3]; KH176 75 mg/kg/dose BID oral, F, Day 1) was 0.073 and the “AUC0–24 h” value [3, 11] was 3090 ng·h/mL. For the same compound, the Cmax [3, 11] was 203 ng/mL, the T1/2 [3, 11] was 30.9 h and the “AUC0–24 h Ratio KH176m/KH176” value ([3]; KH176 75 mg/kg/dose BID oral, F, Day 28) was 0.067. For the same compound, the “AUC0–24 h” value [3, 12] was 5120 ng·h/mL, the Cmax [3, 12] was 305 ng/mL and the T1/2 [3, 12] was 12.9 h. The “AUC0–24 h Ratio KH176m/KH176” value ([3]; KH176 75 mg/kg/dose BID oral, M, Day 1) was 0.080, the “AUC0–24 h” value [3, 13] was 2640 ng·h/mL and the Cmax [3, 13] was 187 ng/mL. For the same compound, the T1/2 [3, 13] was 3.5 h, the “AUC0–24 h Ratio KH176m/KH176” value ([3]; KH176 75 mg/kg/dose BID oral, M, Day 28) was 0.067 and the “AUC0–24 h” value [3, 14] was 3100 ng·h/mL. For the same compound, the Cmax [3, 14] was 265 ng/mL, the “AUC0–24 h Ratio KH176m/KH176” value ([3]; KH176 250 mg/kg/dose BID oral, F, Day 1) was 0.073 and the “AUC0–24 h” value [3, 15] was 7630 ng·h/mL. For the same compound, the Cmax [3, 15] was 415 ng/mL, the “AUC0–24 h Ratio KH176m/KH176” value ([3]; KH176 250 mg/kg/dose BID oral, F, Day 28) was 0.071 and the “AUC0–24 h” value [3, 16] was 17300 ng·h/mL. The Cmax [3, 16] was 913 ng/mL, the “AUC0–24 h Ratio KH176m/KH176” value ([3]; KH176 250 mg/kg/dose BID oral, M, Day 1) was 0.055 and the “AUC0–24 h” value [3, 17] was 5170 ng·h/mL. The Cmax [3, 17] was 312 ng/mL, the T1/2 [3, 17] was 104.4 h and the “AUC0–24 h Ratio KH176m/KH176” value ([3]; KH176 250 mg/kg/dose BID oral, M, Day 28) was 0.066. For the same compound, the “AUC0–24 h” value [3, 18] was 10400 ng·h/mL, the Cmax [3, 18] was 777 ng/mL and the T1/2 [3, 18] was 6.5 h. The IC50 [4] was 250 nM and 255 nM, the EC50 ([5]; P4 cells, 200 µM BSO, 24 h) was 38 nM and 38.7 nM and the “Viability of patient cells under BSO” value ([5]; increasing BSO 24 h, 1 µM compound) was “fully protected”. The “Potency (IC50) of KH176m relative to KH176, lipid peroxidation” value [6] was “about 1000 fold” and the IC50 ([6]; bodipy 581/591 C11) was 71 nM.
